From PubChem BioAssay (NCI)
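Dose response: 5 concentrations. Exposure: 48 h. Format: 96-well plates. Endpoint: linear interpolation; highest concentration if not reached. The concentration for full growth arrest is given as TGI.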

How the values were obtained:
Assay in all cases: inhibition of tumour cell growth, NCI panel, 48 h
KM12 colon = system: KM12 colon
SF-295 CNS = system: SF-295 CNS
HCT-116 colon = system: HCT-116 colon
EKVX NSCLC = system: EKVX NSCLC
MOLT-4 leukemia = system: MOLT-4 leukemia
HOP-92 NSCLC = system: HOP-92 NSCLC
MDA-MB-435 = system: MDA-MB-435
IGROV1 ovarian = system: IGROV1 ovarian
MCF7 breast = system: MCF7 breast
UACC-257 melanoma = system: UACC-257 melanoma
NCI-H460 lung = system: NCI-H460 lung
A498 renal = system: A498 renal
T-47D breast = system: T-47D breast
SF-539 CNS = system: SF-539 CNS
SF-268 CNS = system: SF-268 CNS
786-0 renal = system: 786-0 renal
HL-60(TB) leukemia = system: HL-60(TB) leukemia
SK-MEL-5 melanoma = system: SK-MEL-5 melanoma
RXF 393 renal = system: RXF 393 renal
HT29 colon = system: HT29 colon
NCI-H23 lung = system: NCI-H23 lung
SN12C renal = system: SN12C renal
SNB-19 CNS = system: SNB-19 CNS
RPMI-8226 leukemia = system: RPMI-8226 leukemia
PC-3 prostate = system: PC-3 prostate
OVCAR-4 ovarian = system: OVCAR-4 ovarian
K-562 leukemia = system: K-562 leukemia
M14 melanoma = system: M14 melanoma
COLO 205 colon = system: COLO 205 colon
MDA-N = system: MDA-N
SR leukemia = system: SR leukemia
BT-549 breast = system: BT-549 breast
UO-31 renal = system: UO-31 renal
SK-MEL-28 melanoma = system: SK-MEL-28 melanoma
CAKI-1 renal = system: CAKI-1 renal
LOX IMVI melanoma = system: LOX IMVI melanoma
DU-145 prostate = system: DU-145 prostate
ACHN renal = system: ACHN renal
SK-MEL-2 melanoma = system: SK-MEL-2 melanoma
SK-OV-3 ovarian = system: SK-OV-3 ovarian
U251 CNS = system: U251 CNS
NCI-H522 lung = system: NCI-H522 lung
MALME-3M melanoma = system: MALME-3M melanoma
NCI-H226 lung = system: NCI-H226 lung
HCT-15 colon = system: HCT-15 colon
HS 578T breast = system: HS 578T breast
MDA-MB-231 breast = system: MDA-MB-231 breast
OVCAR-3 ovarian = system: OVCAR-3 ovarian
TK-10 renal = system: TK-10 renal
SW-620 colon = system: SW-620 colon
HOP-62 NSCLC = system: HOP-62 NSCLC
UACC-62 melanoma = system: UACC-62 melanoma
SNB-75 CNS = system: SNB-75 CNS
HCC-2998 colon = system: HCC-2998 colon
OVCAR-8 ovarian = system: OVCAR-8 ovarian
OVCAR-5 ovarian = system: OVCAR-5 ovarian
NCI/ADR-RES ovarian = system: NCI/ADR-RES ovarian
A549 NSCLC = system: A549 NSCLC
CCRF-CEM leukemia = system: CCRF-CEM leukemia

Measured: TGI

CC1CC(C)CN(S(=O)(=O)c2cc(Cl)c(Oc3ccc([N+](=O)[O-])cc3Cl)c(Cl)c2)C1 (stereo not drawn)
not listed: CCRF-CEM leukemia
> 100 µM: all other assays above

CCOC(=O)c1nc2cc(C(F)(F)F)ccc2nc1Nc1ccc(OC)c(OC)c1
not listed: OVCAR-4 ovarian | SK-MEL-2 melanoma | U251 CNS | NCI-H226 lung
> 100 µM: all other assays above
